Experiment [1] deals with T1, T. thermophilus complex I (quinone site, Q-site) (Thermus thermophilus, UniProt Q56218+Q56220+Q60019).
T1 construct: gene nqo4; native intact complex purified from T. thermophilus HB8 membranes in TDM; 16 subunits, 550 kDa; for crystals recombinant His-tagged Nqo16 (E. coli) was added; activity preparation has sub-stoichiometric Nqo16; with NADH-quinone oxidoreductase subunit 1; NADH-quinone oxidoreductase subunit 2; NADH-quinone oxidoreductase subunit 3; NADH-quinone oxidoreductase subunit 5; NADH-quinone oxidoreductase subunit 7; NADH-quinone oxidoreductase subunit 9; NADH-quinone oxidoreductase subunit 10; NADH-quinone oxidoreductase subunit 11; NADH-quinone oxidoreductase subunit 12; NADH-quinone oxidoreductase subunit 13; NADH-quinone oxidoreductase subunit 14; NADH-quinone oxidoreductase subunit 15; NADH-quinone oxidoreductase subunit 16
T1 sequence (Q56220 whole entry, one chain of several): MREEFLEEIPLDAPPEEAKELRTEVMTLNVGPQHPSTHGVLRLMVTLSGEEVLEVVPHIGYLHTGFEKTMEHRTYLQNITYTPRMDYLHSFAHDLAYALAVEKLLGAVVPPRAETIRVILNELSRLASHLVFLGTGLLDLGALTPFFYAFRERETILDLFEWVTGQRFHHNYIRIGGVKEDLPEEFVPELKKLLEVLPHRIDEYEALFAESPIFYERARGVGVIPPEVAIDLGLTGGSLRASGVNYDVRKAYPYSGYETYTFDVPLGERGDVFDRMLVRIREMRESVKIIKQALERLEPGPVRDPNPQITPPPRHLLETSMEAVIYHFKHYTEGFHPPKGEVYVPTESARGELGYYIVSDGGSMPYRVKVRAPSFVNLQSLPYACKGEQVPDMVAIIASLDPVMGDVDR
T1 sequence (Q56222 whole entry partner, one chain of several): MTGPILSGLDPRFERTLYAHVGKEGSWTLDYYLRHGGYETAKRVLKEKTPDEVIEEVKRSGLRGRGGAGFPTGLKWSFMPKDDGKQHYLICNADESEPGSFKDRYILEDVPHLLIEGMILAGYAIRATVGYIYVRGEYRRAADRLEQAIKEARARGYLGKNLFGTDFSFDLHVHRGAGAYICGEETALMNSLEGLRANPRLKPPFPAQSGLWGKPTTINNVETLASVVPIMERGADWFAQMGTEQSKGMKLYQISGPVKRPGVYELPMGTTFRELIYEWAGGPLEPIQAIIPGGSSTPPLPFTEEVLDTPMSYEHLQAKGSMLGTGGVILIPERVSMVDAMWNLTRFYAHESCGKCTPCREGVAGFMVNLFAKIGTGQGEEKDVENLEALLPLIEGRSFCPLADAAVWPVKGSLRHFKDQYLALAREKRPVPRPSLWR
Kind of experiment: NADH:DQ oxidoreductase activity, absorbance at […] nm. The format is biochemical.

Experiment [2] addresses T1, T. thermophilus complex I (quinone site, Q-site). The experiment in a line: biochemical. Details: NADH:decylubiquinone oxidoreductase activity of purified complex I, NADH absorbance at 340 nm, 50 °C. How it is done: Complex I activity was measured at 50 °C with DQ as an electron acceptor. To a 2 mL quartz cuvette containing DQ assay buffer (50 mM Bis–Tris pH 6.0, 25 mM NaCl, 2 mM CaCl2), 0.25 mg mL^−1 asolectin (Fluka), 8 μg mL^−1 complex I protein, and 100 μM DQ were added. The sample was incubated for 5 min whilst stirred at 400 rpm, to allow for the equilibration of the protein/DQ/lipid/detergent mixture. The reaction was started by adding 100 μM NADH and the change in absorbance was followed at 340 nm, over 30 s under constant stirring. Specific enzyme activity was calculated in μmol NADH oxidized mg^−[…]. When required, inhibitors of complex I were added after DQ, prior to the 5-min incubation period. Lipids were prepared by mixing asolectin in a small volume of chloroform (1 mL) before evaporating the solvent under a stream of nitrogen gas, and were resuspended in 1% CHAPS to a final concentration of 5 mg mL^−1 before use. […] IC50’s for a range of common complex I inhibitors are listed in the Supplementary Table 3. […] Crystal structures of complex I with bound DQ and Q-like inhibitors also show a rotation of PA, like that observed in MJ–MN transition. However, its degree of torsion depends strongly on the Q-ligand, with DQ introducing the largest conformational change (Supplementary Fig. 7d, e). All Q-like ligands studied here display a similar pattern of interactions at the deepest end of the Q-cavity, with the headgroup about 12 Å away from cluster N2 (Fig. 4). A shared feature between all ligands bound in the Q-site is a hydrogen bond interaction of a ketone group from the quinone ring with the conserved and essential for complex I activity Y87_4[16],[36]. Other key residues, such as H38_4 from the key β1–β2 loop (33-QHPSTHG-39) in Nqo4 and M51_6, also contribute to the stabilization of the quinone ring, while secondary residues are involved specifically in the binding of each ligand (Fig. 4 and Supplementary Fig. 2). […] In the case of [compound left out], H38_4 stabilizes its outer ether group, while M51_6 interacts with the oxygen in the furanose ring (Fig. 4c). The distal nitrobenzene moiety is surrounded by both charged and nonpolar residues that, despite the lack of direct interaction, might form a suitable pocket for its accommodation.

The target in experiment [3] is T2, Complex I subunit Nqo8 (Thermus thermophilus) (T. thermophilus HB8, UniProt Q60019 1-365).
T2 construct: Nqo8, core subunit of the membrane domain of respiratory complex I, Thermus thermophilus HB8; Endogenous subunit inside the crystallised intact complex; source: purified from T. thermophilus HB8 cells as part of intact complex I (anion exchange, cation exchange, gel filtration)
T2 sequence (looked up): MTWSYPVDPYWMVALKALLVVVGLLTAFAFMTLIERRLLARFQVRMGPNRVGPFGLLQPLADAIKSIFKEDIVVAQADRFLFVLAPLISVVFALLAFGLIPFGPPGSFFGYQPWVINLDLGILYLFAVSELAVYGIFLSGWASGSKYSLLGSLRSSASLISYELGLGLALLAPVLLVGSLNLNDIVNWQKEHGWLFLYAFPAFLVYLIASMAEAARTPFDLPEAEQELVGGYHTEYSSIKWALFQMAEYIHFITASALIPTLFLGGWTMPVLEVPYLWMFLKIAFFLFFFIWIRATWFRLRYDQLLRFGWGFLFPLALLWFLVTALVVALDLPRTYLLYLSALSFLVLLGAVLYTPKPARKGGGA
The experiment in a line: crystal structure; intact complex I purified from T. thermophilus mixed with purified recombinant Nqo16 (1:0.2 CXI:Nqo16), sitting drop at 23 °C, 100 mM Bis-Tris pH 6.0, 19-25% PEG 4000, 100 mM KCl, 100 mM glutaric acid, detergents; native crystals and crystals soaked or co-crystallised with NADH, decylubiquinone, piericidin A, aureothin or pyridaben. To be noted: both partners purified.

The target in experiment [4] is T3, Intact complex I (NADH:ubiquinone oxidoreductase) purified from Thermus thermophilus, the form without Nqo16 (T. thermophilus HB8, UniProt Q56222 1-438; Q56221 1-181; Q56223 1-783; Q56220 1-409; Q56219 1-207; Q56218 …).
T3 construct: Nqo1, complex I subunit, Thermus thermophilus HB8; Nqo2, complex I subunit, Thermus thermophilus HB8; Nqo3, complex I subunit, Thermus thermophilus HB8; Nqo4, complex I subunit, Thermus thermophilus HB8; Nqo5, complex I subunit, Thermus thermophilus HB8; Nqo6, complex I subunit, Thermus thermophilus HB8; Nqo7, complex I subunit, Thermus thermophilus HB8; Nqo8, complex I subunit, Thermus …
The experiment is described as above. To be noted: both partners purified.

One may read the IC50 as the concentration that inhibits the measured activity by half.

With `C=C(C)[C@H]1Cc2c(ccc3c2O[C@@H]2COc4cc(OC)c(OC)cc4[C@@H]2C3=O)O1` [rotenone], the IC50 in experiment [1] (read-out: IC50) came out at 190 nM.

`COc1cc(CNC(=O)CCCC/C=C/C(C)C)ccc1O` [Capsaicin]: the IC50 in experiment [2] (read-out: IC50 (µM in cell)) was 197 µM.

For the molecule `COc1oc([C@H]2C/C(=C/C(C)=C/c3ccc([N+](=O)[O-])cc3)CO2)c(C)c(=O)c1C` [AUT, aureothin], the IC50 in experiment [1] (read-out: IC50) was 10.3 nM.

Consider `C/C=C(C)/C=C/C=C/[C@H](OC)[C@@H](C)[C@@H](OC)[C@@H](C)CCc1oc2c(O)c(OC)cc(OC)c2c(=O)c1C` [Stigmatellin], for which, in experiment [2] (read-out: IC50 (µM in cell)), the IC50 came to 60 µM.

As for `Cc1nn(C)c(Oc2ccccc2)c1/C=N/OCc1ccc(C(=O)OC(C)(C)C)cc1` [Fenpyroximate], the IC50 in experiment [2] (read-out: IC50 (nM in cell)) turned out to be 0.63 µM.

On to `CCCCCCCCCC[C@H](O)[C@H]1CC[C@@H]([C@@H]2CC[C@H]([C@H](O)CCCCCCCCCC[C@@H](O)CC3=C[C@H](C)OC3=O)O2)O1` [Rolliniastatin-1], for which, in experiment [2] (read-out: IC50 (nM in cell)), the IC50 worked out at 0.93 µM.

As for `CC(C)(C)c1ccc(CSc2cnn(C(C)(C)C)c(=O)c2Cl)cc1` [PYR, pyridaben], the half-maximal inhibitory concentration (IC50) in experiment [1] (read-out: IC50) amounted to 15.6 nM.

As for `C/C=C(\C)[C@H](O)[C@H](C)/C=C(C)/C=C/C/C(C)=C/Cc1nc(OC)c(OC)c(O)c1C` [PIE, piericidin A], in experiment [1], the IC50 was 31 nM.

B1: Complex I subunit Nqo6 (Thermus thermophilus) (natural protein, T. thermophilus HB8, UniProt Q56218 1-181, looked up)
chain: MALKDLFERDVQELEREGILFTTLEKLVAWGRSNSLWPATFGLACCAIEMMASTDARNDLARFGSEVFRASPRQADVMIVAGRLSKKMAPVMRRVWEQMPDPKWVISMGACASSGGMFNNYAIVQNVDSVVPVDVYVPGCPPRPEALIYAVMQLQKKVRGQAYNERGERLPPVAAWKRTRG
notes: Nqo6, core subunit of the peripheral arm of respiratory complex I, Thermus thermophilus HB8; Endogenous subunit inside the crystallised intact complex; source: purified from T. thermophilus HB8 cells as part of intact complex I (anion exchange, cation exchange, gel filtration)
For the molecule B1, the binding result in experiment [3] is given as “binds”.

B2: Complex I subunit Nqo10 (Thermus thermophilus) (natural protein, T. thermophilus HB8, UniProt Q56225 1-176, looked up)
chain: MSLLEGLALFLLLLSGVLVVTLRNAIHAALALILNFLVLAGVYVALDARFLGFIQVIVYAGAIVVLFLFVIMLLFAAQGEIGFDPLVRSRPLAALLALGVAGILAAGLWGLDLAFTQDLKGGLPQALGPLLYGDWLFVLLAVGFLLMAATVVAVALVEPGKASRAKEAEKREEVAR
notes: Nqo10, core subunit of the membrane domain of respiratory complex I, Thermus thermophilus HB8; Endogenous subunit inside the crystallised intact complex; source: purified from T. thermophilus HB8 cells as part of intact complex I (anion exchange, cation exchange, gel filtration)
For the molecule B2, the binding result in experiment [3] is reported as “binds”.

B3: Heterologously expressed subunit Nqo16 (ttha1528 gene), His-tagged (natural protein, T. thermophilus HB8, UniProt Q5SI52 1-131, looked up)
chain: MVRVGMRAAPRVSLEALKAALGGLKLSEAKVYLITDWQDKRDQARYALLLHTGKKDLLVPDAFGPAFPGGEEALSELVGLLLAQGARRFYEAVVSPGEMTALLDLPPEELLKRVMAIANPTDPGIYLKRAA
notes: reverse primer with the stop codon) and cloned into pet16b; Full length is read from the printed primers (start codon in the NdeI site to the stop codon); also called His-tagged Nqo16; source: E. coli BL21(DE3), purified (heat treatment 70 °C, Ni-NTA)
For the molecule B3, in experiment [4], the binding result was “binds”.

(Values after PMC7434922, “Key role of quinone in the mechanism of respiratory complex I” (Nature Communications, 2020).)
